Results: patent publication US10259779B2 (WAYNE STATE UNIVERSITY, priority 2016, dated 2019)

How the values were obtained:
[1] = test system: HDAC proteins in HeLa cell lysates; experiment: Global HDAC inhibition with HeLa cell lysates (HDAC-Glo I/II substrate); type: biochemical; conditions: for Deacetylase activity (%): Hela Lysate
Experimental: HDAC activity was measured using the commercially available HDAC-Glo™ I/II substrate (Promega).
Lysates were prepared according to the reported procedure.^28 HeLa-S3 cells (purchased from Biovest) were lysed in lysis buffer (1×10^9 cells in 10 mL lysis buffer; 50 mM Tris-HCl, pH 8.0, 10% glycerol, 150 mM NaCl, 0.5% Triton X-100, and 1× protease inhibitor cocktail (GenDEPOT)) with rotation at 4° C. for 30 min. Cell debris was removed by centrifugation at 12000 rpm at 4° C. for 30 min. Protein concentration of the supernatant was determined using Bio-Rad protein assay (BioRad, Bradford reagent). Lysates were stored at −80° C.
To measure global HDAC inhibition, HeLa cell lysates (1 μg total protein) were mixed with HDAC-Glo™ buffer in polystyrene 96-well half area white plate (Corning) to a final volume of 12 μL, followed by addition of inhibitors in DMSO (0.5 μL) and incubation for 15 min at room temperature without rocking. An uninhibited control reaction was also included that contained DMSO (0.5 μL). Finally, deacetylase activity was measured using the HDAC-Glo™ assay kit (Promega) as per the manufacturer's protocol. Specifically, the HDAC-Glo™ substrate (1 mL) and developer ([…]) were first premixed to form the HDAC-Glo™ reagents. Then, to monitor deacetylase activity, HDAC-Glo™ reagent (5 μL) and HDAC-Glo™ buffer (7.5 μL) were added to each well (25 μL total volume) and incubated for 35 min at room temperature without rocking. The deacetylase activity was measured as luminescent signal using a GeniosPlus Fluorimeter (Tecan) at optimal gain. The concentrations of inhibitors reported in the dose-dependent studies (Table 2) are final concentrations after addition of HDAC-Glo™ reagent HDAC-Glo™ buffer.

recombinant HDAC8 = target: T1, recombinant HDAC8 (Homo sapiens, UniProt Q9BY41); experiment: Recombinant HDAC8 inhibition (HDAC-Glo); type: biochemical; conditions: for activity at 0.1 µM: 1.0 × 10^−7 M; for activity at 0.2 µM: 2.0 × 10^−7 M; for activity at 0.05 µM: 5.0 × 10^−8 M; for HDAC8 fold selectivity HDAC1: HDAC8 over HDAC1; for HDAC8 fold selectivity HDAC1 / HDAC8 fold selectivity HDAC2 / HDAC8 fold selectivity HDAC3: calculated from IC50 values; for HDAC8 fold selectivity HDAC2: HDAC8 over HDAC2; for HDAC8 fold selectivity HDAC3: HDAC8 over HDAC3
T1 construct: purchased BPS Bioscience
T1 sequence (Q9BY41 1-377): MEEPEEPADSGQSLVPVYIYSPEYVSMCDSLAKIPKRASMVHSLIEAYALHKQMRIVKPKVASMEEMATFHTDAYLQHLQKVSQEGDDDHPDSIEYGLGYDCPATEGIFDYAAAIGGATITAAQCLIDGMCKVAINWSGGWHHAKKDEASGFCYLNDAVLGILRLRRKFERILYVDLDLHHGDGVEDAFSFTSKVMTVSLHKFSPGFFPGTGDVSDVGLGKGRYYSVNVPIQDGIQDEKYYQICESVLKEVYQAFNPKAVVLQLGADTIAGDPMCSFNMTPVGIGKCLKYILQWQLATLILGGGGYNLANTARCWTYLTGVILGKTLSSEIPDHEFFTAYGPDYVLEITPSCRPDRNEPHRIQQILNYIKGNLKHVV
Experimental: Inhibitory activity with HDAC8 was measured using the following procedure. In a half area 96-well white opaque plate, recombinant HDAC8 (75 ng, BPS Bioscience) was incubated in HDAC-Glo™ buffer (39 μL) with inhibitor in DMSO (1 μL), or DMSO alone (1 μL) as a control, for 15 minutes at room temperature. HDAC-Glo™ reagent (10 μL) was added to each reaction and incubated for 30 min at room temperature. Luminescent signal was measured 30 minutes after adding the substrate reagent using a Geniosplus Fluorimeter (Tecan) at optimal gain. To determine IC50, the luminescent signal was first background corrected with the signal from a background control reaction where no HDAC8 enzyme was added.

HDAC3 = HDAC3 (Homo sapiens, UniProt O15379); experiment: ELISA-based HDAC activity assay, HDAC3; conditions: for IC50: read-out: IC50 values (nM) HDAC3
HDAC3, sequence (O15379 whole entry): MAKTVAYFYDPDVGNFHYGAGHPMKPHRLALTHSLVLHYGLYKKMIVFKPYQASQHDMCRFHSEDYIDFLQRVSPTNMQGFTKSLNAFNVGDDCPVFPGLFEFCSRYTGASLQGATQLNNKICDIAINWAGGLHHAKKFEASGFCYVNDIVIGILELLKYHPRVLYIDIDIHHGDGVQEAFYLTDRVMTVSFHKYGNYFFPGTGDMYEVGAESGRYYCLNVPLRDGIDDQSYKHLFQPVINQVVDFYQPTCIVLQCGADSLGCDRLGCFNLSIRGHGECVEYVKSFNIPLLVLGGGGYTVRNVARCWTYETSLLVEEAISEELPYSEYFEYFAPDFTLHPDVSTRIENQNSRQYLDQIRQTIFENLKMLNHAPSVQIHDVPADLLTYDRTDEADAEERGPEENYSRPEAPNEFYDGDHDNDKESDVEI
HDAC3, sequence (Q9Y618 whole entry partner): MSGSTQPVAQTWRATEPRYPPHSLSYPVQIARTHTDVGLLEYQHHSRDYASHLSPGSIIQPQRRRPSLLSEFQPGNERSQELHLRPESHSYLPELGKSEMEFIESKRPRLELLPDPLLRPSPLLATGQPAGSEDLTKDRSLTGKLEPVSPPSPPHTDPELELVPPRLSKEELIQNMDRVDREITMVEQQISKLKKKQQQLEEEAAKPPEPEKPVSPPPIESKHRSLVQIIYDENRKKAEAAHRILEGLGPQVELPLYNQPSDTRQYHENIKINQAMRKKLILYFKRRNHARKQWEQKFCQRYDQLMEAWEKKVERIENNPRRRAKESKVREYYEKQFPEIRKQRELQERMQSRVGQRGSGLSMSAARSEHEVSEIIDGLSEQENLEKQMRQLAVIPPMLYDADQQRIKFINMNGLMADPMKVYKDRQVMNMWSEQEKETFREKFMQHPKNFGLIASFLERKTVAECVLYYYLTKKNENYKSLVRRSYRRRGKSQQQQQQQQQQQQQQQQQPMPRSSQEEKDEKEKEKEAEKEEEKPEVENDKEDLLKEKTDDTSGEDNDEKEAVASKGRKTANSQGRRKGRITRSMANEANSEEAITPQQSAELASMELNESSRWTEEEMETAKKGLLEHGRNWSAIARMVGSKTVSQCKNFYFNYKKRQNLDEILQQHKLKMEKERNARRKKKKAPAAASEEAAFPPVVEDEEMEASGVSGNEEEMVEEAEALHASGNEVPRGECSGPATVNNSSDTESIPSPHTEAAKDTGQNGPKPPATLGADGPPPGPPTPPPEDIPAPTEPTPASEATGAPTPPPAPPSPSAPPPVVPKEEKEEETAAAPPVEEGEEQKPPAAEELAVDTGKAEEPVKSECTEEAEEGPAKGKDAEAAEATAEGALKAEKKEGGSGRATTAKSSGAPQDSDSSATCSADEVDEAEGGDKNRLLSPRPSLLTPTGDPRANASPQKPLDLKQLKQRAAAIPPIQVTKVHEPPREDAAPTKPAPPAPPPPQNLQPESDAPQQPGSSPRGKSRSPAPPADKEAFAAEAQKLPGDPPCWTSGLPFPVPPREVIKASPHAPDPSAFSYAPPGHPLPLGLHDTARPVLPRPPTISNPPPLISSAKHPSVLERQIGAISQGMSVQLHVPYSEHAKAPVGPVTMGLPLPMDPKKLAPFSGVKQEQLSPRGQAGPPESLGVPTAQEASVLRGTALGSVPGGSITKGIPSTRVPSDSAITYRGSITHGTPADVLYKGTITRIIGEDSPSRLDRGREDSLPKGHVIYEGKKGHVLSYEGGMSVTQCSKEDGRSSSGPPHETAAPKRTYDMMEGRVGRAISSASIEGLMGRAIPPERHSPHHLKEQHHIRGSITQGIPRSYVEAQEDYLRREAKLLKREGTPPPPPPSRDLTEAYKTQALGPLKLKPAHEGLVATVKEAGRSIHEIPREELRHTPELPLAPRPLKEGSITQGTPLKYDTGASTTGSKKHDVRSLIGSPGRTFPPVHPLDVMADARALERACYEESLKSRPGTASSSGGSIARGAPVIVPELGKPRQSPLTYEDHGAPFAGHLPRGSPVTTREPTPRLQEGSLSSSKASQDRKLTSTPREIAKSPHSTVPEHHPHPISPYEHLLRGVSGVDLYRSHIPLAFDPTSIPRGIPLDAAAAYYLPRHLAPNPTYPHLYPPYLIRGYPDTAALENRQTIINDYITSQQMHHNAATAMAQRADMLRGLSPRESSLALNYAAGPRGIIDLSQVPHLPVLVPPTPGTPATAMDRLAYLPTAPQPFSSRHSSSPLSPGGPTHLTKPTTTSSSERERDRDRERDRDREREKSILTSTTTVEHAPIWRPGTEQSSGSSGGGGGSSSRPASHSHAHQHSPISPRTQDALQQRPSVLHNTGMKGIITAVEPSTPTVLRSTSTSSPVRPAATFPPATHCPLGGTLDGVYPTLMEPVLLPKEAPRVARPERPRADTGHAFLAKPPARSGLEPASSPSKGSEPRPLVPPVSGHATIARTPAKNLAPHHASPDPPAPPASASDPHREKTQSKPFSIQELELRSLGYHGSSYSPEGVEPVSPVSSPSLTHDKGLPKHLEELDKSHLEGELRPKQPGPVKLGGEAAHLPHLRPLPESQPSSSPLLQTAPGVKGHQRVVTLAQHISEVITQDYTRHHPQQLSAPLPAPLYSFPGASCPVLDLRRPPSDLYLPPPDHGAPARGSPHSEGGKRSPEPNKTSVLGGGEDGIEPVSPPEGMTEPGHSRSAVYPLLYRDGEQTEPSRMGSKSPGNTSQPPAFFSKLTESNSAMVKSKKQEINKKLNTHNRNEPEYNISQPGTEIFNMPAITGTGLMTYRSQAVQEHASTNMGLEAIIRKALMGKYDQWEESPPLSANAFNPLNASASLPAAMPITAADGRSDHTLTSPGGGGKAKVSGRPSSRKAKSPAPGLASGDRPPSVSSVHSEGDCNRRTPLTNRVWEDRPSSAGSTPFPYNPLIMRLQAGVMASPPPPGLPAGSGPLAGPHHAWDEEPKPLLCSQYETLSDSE

HDAC6 = target: T2, HDAC6 (Homo sapiens, UniProt Q9UBN7); experiment: ELISA-based HDAC activity assay, HDAC6; conditions: for HDAC6 fold selectivity HDAC1: HDAC6 over HDAC1; for HDAC6 fold selectivity HDAC1 / HDAC6 fold selectivity HDAC2 / HDAC6 fold selectivity HDAC3: calculated from IC50 values; for HDAC6 fold selectivity HDAC2: HDAC6 over HDAC2; for HDAC6 fold selectivity HDAC3: HDAC6 over HDAC3; for IC50: read-out: IC50 values (nM) HDAC6
T2 sequence (Q9UBN7 1-1215): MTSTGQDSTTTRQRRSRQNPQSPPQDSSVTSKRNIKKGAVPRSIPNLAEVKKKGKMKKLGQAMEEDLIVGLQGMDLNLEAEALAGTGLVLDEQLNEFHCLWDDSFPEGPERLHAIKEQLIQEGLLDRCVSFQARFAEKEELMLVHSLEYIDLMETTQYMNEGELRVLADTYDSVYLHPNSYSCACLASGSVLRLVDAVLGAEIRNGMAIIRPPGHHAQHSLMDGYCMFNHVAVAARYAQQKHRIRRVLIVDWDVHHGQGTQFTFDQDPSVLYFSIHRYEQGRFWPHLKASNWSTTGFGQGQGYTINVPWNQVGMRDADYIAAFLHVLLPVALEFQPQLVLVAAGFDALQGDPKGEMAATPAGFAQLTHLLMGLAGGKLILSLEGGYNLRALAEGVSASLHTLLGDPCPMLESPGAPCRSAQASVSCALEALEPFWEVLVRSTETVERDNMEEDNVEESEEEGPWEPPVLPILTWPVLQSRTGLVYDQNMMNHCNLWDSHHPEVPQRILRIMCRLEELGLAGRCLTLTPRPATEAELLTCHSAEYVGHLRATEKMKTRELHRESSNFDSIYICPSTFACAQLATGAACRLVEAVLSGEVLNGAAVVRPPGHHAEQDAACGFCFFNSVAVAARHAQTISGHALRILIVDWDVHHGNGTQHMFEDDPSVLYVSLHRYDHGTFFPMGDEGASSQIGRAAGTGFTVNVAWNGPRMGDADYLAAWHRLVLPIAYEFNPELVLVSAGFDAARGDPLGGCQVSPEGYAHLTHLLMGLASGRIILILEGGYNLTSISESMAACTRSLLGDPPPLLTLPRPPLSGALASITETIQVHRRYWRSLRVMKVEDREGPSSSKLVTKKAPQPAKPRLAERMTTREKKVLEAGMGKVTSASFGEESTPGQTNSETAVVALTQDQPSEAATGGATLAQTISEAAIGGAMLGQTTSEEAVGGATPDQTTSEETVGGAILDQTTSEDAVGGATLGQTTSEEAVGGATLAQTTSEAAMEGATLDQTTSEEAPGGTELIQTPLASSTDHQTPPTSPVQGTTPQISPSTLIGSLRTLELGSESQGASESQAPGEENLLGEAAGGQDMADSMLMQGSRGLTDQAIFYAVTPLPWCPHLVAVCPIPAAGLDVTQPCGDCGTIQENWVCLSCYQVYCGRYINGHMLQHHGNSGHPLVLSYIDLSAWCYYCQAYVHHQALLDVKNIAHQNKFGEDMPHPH

HDAC2 = HDAC2 (Homo sapiens, UniProt Q92769); experiment: ELISA-based HDAC activity assay, HDAC2; conditions: for IC50: read-out: IC50 values (nM) HDAC2
HDAC2, sequence (Q92769 whole entry): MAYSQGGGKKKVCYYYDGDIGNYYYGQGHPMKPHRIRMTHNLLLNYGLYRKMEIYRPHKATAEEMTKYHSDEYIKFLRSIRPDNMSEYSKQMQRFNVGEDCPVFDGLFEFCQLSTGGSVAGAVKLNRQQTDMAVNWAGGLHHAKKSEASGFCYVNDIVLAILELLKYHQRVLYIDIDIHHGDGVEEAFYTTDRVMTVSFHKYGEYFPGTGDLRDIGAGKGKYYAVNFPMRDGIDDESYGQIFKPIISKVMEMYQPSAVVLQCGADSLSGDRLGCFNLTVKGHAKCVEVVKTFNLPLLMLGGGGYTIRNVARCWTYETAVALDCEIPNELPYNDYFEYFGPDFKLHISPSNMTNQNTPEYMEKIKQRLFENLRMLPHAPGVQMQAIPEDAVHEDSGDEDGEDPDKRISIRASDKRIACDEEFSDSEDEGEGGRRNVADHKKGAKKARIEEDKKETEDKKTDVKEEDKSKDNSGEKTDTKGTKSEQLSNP

HDAC1 = HDAC1 (Homo sapiens, UniProt Q13547); experiment: ELISA-based HDAC activity assay, HDAC1; conditions: for IC50: read-out: IC50 values (nM) HDAC1
HDAC1, sequence (Q13547 whole entry): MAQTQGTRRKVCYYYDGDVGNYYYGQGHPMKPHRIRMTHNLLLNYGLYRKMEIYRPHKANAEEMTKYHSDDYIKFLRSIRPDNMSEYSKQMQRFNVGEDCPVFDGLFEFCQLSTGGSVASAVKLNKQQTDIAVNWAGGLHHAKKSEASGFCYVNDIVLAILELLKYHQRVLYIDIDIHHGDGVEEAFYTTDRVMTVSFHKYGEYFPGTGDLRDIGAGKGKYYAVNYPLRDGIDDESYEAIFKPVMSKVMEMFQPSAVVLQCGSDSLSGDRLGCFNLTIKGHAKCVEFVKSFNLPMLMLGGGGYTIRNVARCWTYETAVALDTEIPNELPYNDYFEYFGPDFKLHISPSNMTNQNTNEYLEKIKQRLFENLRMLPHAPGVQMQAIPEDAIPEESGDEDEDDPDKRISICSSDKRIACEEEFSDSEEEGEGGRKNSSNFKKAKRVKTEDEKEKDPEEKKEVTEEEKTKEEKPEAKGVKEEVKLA

[2] = read-out: Deacetylase activity (%) HDAC8
[3] = read-out: Deacetylase activity (%) HDAC3
[4] = read-out: Deacetylase activity (%) HDAC6
[5] = read-out: Deacetylase activity (%) HDAC2
[6] = read-out: Deacetylase activity (%) HDAC1

Structure (SMILES): CC(CCCC(=O)Nc1ccccc1)CCC(=O)NO (racemic) [Compound 1a, N^1-hydroxy-4-methyl-N^8-phenyloctanediamide]
- Deacetylase activity (%) ([1]; 1.0 × 10^−5 M): 17 ± 2%
- Deacetylase activity (%) ([1]; 1.25 × 10^−6 M): 79 ± 3%
- Deacetylase activity (%) ([1]; 5.0 × 10^−6 M): 38 ± 4%
- Deacetylase activity (%) ([1]; 6.25 × 10^−6 M): 91 ± 2%
- IC50 ([1]; HeLa cell lysates): 3.3 µM
- fold less potent than SAHA ([1]; HeLa cell lysates, compared to parent SAHA): 18 fold
- Deacetylase activity (%) ([1]; […] 10^−6 M): 60 ± 3%

Structure (SMILES): CCCCCCC(CCCC(=O)Nc1ccccc1)CCC(=O)NO (single isomer, unassigned) [Compound 1e, 4-hexyl-N^1-hydroxy-N^8-phenyloctanediamide]
- Deacetylase activity (%) ([1]; 1.0 × 10^−4 M): 32 ± 1%
- Deacetylase activity (%) ([1]; 1.25 × 10^−5 M): 104 ± 1%
- Deacetylase activity (%) ([1]; 2.0 × 10^−4 M): 15 ± 1%
- Deacetylase activity (%) ([1]; 5.0 × 10^−5 M): 57 ± 2%
- IC50 ([1]; HeLa cell lysates): 65 ± 6 µM
- Deacetylase activity (%) ([1]; […] 10^−5 M): 88 ± 1%

Structure (SMILES): O=C(CC[C@@H](CCCC(=O)Nc1ccccc1)Cc1ccccc1)NO [(R)-1f, (R)-4-benzyl-N^1-hydroxy-N^8-phenyloctanediamide]
- IC50 (recombinant HDAC8): 27 nM
- activity at 0.1 µM (recombinant HDAC8; [2]): 22 ± 1%
- activity at 0.0125 µM (recombinant HDAC8; 1.25 × 10^−8 M, read-out: Deacetylase activity (%) HDAC8): 64 ± 2%
- activity at 0.2 µM (recombinant HDAC8; [2]): 16 ± 1%
- activity at […] (recombinant HDAC8; 2.5 × 10^−8 M, read-out: Deacetylase activity (%) HDAC8): 56 ± 4%
- activity at 0.05 µM (recombinant HDAC8; [2]): 37 ± 3%
- HDAC8 fold selectivity HDAC1 (recombinant HDAC8): 260 fold
- HDAC8 fold selectivity HDAC2 (recombinant HDAC8): 330 fold
- HDAC8 fold selectivity HDAC3 (recombinant HDAC8): 240 fold
- activity at 5 µM (HDAC3; [3]): 89 ± 2%
- activity at 10 µM (HDAC3; [3]): 77 ± 2%
- activity at 20 µM (HDAC3; [3]): 54 ± 4%
- activity at 40 µM (HDAC3; [3]): 39 ± 2%
- activity at 80 µM (HDAC3; [3]): 25 ± 2%
- IC50 (HDAC3): 27000 nM
- HDAC6 fold selectivity HDAC1 (HDAC6): 420 fold
- HDAC6 fold selectivity HDAC2 (HDAC6): 540 fold
- HDAC6 fold selectivity HDAC3 (HDAC6): 390 fold
- activity at 0.0125 µM (HDAC6; [4]): 67 ± 4%
- activity at 0.05 µM (HDAC6; [4]): 57 ± 5%
- activity at 0.1 µM (HDAC6; [4]): 37 ± 6%
- activity at 0.2 µM (HDAC6; [4]): 26 ± 4%
- activity at […] (HDAC6; [4]): 59 ± 8%
- IC50 (HDAC6): 48 nM
- activity at 5 µM (HDAC2; [5]): 96 ± 1%
- activity at 10 µM (HDAC2; [5]): 83 ± 5%
- activity at 20 µM (HDAC2; [5]): 71 ± 4%
- activity at 40 µM (HDAC2; [5]): 43 ± 5%
- activity at 80 µM (HDAC2; [5]): 29 ± 1%
- IC50 (HDAC2): 36000 nM
- activity at 5 µM (HDAC1; [6]): 88 ± 4%
- activity at 10 µM (HDAC1; [6]): 72 ± 3%
- activity at 20 µM (HDAC1; [6]): 53 ± 6%
- activity at 40 µM (HDAC1; [6]): 38 ± 3%
- activity at 80 µM (HDAC1; [6]): 24 ± 2%
- IC50 (HDAC1): 25000 nM

Structure (SMILES): O=C(CC[C@H](CCCC(=O)Nc1ccccc1)Cc1ccccc1)NO [(S)-1f, (S)-4-benzyl-N^1-hydroxy-N^8-phenyloctanediamide]
- IC50 (recombinant HDAC8): 150 nM
- activity at 0.1 µM (recombinant HDAC8; [2]): 61 ± 3%
- activity at 0.2 µM (recombinant HDAC8; [2]): 42 ± 2%
- activity at 0.4 µM (recombinant HDAC8; 4.0 × 10^−7 M, read-out: Deacetylase activity (%) HDAC8): 28 ± 1%
- activity at 0.05 µM (recombinant HDAC8; [2]): 75 ± 6%
- activity at 0.8 µM (recombinant HDAC8; 8.0 × 10^−7 M, read-out: Deacetylase activity (%) HDAC8): 19 ± 1%
- HDAC8 fold selectivity HDAC1 (recombinant HDAC8): 930 fold
- HDAC8 fold selectivity HDAC2 (recombinant HDAC8): 1300 fold
- HDAC8 fold selectivity HDAC3 (recombinant HDAC8): 1000 fold
- activity at 10 µM (HDAC3; [3]): 76 ± 5%
- activity at 20 µM (HDAC3; [3]): 67 ± 4%
- activity at 40 µM (HDAC3; [3]): 48 ± 2%
- activity at 80 µM (HDAC3; [3]): 33 ± 4%
- activity at 160 µM (HDAC3; [3]): 15 ± 2%
- IC50 (HDAC3): 37000 nM
- HDAC6 fold selectivity HDAC1 (HDAC6): 520 fold
- HDAC6 fold selectivity HDAC2 (HDAC6): 750 fold
- HDAC6 fold selectivity HDAC3 (HDAC6): 560 fold
- activity at 0.05 µM (HDAC6; [4]): 64 ± 4%
- activity at 0.1 µM (HDAC6; [4]): 48 ± 7%
- activity at 0.2 µM (HDAC6; [4]): 37 ± 7%
- activity at 0.4 µM (HDAC6; [4]): 17 ± 6%
- activity at 0.8 µM (HDAC6; [4]): 16 ± 6%
- IC50 (HDAC6): 95 ± 9 nM
- activity at 10 µM (HDAC2; [5]): 87 ± 5%
- activity at 20 µM (HDAC2; [5]): 74 ± 3%
- activity at 40 µM (HDAC2; [5]): 56 ± 3%
- activity at 80 µM (HDAC2; [5]): 37 ± 6%
- activity at 160 µM (HDAC2; [5]): 22 ± 2%
- IC50 (HDAC2): 51000 nM
- activity at 10 µM (HDAC1; [6]): 84 ± 7%
- activity at 20 µM (HDAC1; [6]): 68 ± 3%
- activity at 40 µM (HDAC1; [6]): 50 ± 3%
- activity at 80 µM (HDAC1; [6]): 32 ± 2%
- activity at 160 µM (HDAC1; [6]): 17 ± 1%
- IC50 (HDAC1): 40000 nM
